Among the data in PMC4012739, “Targeted inhibition of cell-surface serine protease Hepsin blocks prostate cancer bone metastasis” (Oncotarget, 2014) are IC50 values, retold here.

The target of this assay is T1, Hepsin (Homo sapiens, UniProt P05981).
T1 construct: gene HPN; Extracellular part of human Hepsin (amino acids 45-417), SRCR and trypsin-like serine protease domains
The assay is described as follows: chromogenic peptide (pyroGlu-Pro-Arg-pNA) protease assay with purified recombinant Hepsin; also pro-HGF cleavage. It counts as biochemical.

T1 sequence (P05981 45-162): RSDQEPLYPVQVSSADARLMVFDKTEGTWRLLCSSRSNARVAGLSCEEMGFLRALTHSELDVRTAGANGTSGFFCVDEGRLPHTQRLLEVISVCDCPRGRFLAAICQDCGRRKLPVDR
T1 sequence (P05981 163-417): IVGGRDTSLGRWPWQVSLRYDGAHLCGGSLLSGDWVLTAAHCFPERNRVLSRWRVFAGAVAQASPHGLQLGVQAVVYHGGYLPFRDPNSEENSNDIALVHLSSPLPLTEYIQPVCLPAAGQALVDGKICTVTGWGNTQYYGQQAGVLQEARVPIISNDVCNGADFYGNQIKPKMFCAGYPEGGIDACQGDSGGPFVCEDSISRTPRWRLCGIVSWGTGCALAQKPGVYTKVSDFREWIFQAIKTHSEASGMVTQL

Broadly, the IC50 is the point on the concentration scale where inhibition reaches its midpoint. For the molecule `Brc1ccc(C2Nc3cccc4cccc(c34)N2)cc1` [HepIn-13], the IC50 was 0.33 µM.
